Data set [1] has as its target T1, Adrenergic receptor alpha-1 (Rattus norvegicus, UniProt P15823+P23944+P43140).
T1 sequence (P15823 whole entry): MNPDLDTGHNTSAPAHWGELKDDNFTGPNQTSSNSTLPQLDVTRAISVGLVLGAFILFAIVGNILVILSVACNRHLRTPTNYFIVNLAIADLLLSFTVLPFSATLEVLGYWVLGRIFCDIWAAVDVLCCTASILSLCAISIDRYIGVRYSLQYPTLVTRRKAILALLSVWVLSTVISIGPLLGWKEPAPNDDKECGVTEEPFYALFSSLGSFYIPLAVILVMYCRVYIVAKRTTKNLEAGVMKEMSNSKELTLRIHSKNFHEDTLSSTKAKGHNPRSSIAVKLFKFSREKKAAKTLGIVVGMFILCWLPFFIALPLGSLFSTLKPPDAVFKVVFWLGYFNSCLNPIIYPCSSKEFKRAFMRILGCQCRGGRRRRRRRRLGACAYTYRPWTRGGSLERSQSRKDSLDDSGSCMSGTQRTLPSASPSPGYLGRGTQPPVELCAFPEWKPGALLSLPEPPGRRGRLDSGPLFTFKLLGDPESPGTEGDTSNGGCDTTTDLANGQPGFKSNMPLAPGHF
T1 sequence (P23944 whole entry): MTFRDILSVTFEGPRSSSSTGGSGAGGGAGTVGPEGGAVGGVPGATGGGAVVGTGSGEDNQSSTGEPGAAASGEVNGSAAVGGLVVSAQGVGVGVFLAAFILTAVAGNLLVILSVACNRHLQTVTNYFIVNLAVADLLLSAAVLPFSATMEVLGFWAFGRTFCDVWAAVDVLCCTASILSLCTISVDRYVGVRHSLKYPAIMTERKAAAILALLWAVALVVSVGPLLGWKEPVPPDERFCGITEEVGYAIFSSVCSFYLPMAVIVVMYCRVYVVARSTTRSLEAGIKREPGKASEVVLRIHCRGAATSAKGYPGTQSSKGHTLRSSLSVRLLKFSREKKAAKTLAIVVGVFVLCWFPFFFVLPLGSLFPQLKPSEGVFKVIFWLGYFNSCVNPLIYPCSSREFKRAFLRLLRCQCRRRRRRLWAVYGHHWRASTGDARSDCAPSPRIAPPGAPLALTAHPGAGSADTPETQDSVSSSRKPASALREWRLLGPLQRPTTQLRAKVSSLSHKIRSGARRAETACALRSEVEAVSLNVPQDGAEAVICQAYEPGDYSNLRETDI
T1 sequence (P43140 whole entry): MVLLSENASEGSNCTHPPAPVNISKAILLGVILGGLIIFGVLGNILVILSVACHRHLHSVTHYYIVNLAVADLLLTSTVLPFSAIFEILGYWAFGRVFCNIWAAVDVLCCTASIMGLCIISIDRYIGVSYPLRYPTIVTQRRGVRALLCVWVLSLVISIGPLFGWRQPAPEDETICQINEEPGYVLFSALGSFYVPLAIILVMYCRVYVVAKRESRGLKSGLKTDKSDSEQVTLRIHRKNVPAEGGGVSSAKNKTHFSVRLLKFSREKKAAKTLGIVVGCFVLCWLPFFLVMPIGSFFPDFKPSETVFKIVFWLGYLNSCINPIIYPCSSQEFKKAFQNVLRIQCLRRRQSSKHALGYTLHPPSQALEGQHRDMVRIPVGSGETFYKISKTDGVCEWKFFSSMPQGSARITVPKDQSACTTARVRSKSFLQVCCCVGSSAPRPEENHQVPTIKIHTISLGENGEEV
The data set is classed as tissue-based, Frontal cortex.
Description: Inhibition of [3H]-prazosin binding to Alpha-1 adrenergic receptor in rat frontal cortex homogenate

Data set [2] has as its target D(3) dopamine receptor (Rattus norvegicus, UniProt P19020). Set-up: species or system Tissue.
Description: Half-maximal inhibition of [3H]-7-OH-DPAT binding to Dopamine receptor D3 in rat tissue homogenate
Data set [3] is filed under the species Mus musculus. Description: animal or person. The data set is classed as functional. As to conditions: sc, route subcutaneous.
Description: Ability to antagonize apomorphine-induced climbing in mice after administration of 0.10 mg/kg dose subcutaneously
The species named for data set [4] is Mus musculus. Put plainly: animal or person. The following applies: dose 7.9 mg/kg, route oral. It is filed as functional.
The species entered for data set [5] is Rattus norvegicus. As to conditions: in vivo.
Description: Area under curve (AUC) value of HVA level after total treatment in dialysates collected from rat striatum.

D(3) dopamine receptor, sequence (P19020 whole entry): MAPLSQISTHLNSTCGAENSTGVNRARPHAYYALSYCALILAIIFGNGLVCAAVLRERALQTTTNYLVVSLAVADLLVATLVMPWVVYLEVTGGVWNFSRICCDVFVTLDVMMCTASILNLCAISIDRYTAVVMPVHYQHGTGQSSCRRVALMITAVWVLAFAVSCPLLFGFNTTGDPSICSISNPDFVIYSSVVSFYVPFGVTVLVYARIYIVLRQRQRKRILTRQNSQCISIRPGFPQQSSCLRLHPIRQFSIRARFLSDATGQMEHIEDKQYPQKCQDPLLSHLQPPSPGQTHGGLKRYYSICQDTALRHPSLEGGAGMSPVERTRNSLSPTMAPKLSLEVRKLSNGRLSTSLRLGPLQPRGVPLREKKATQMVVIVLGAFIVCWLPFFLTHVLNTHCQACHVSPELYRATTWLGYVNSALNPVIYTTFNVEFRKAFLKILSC

With `CN1CCN([C@@H]2Cn3cccc3Sc3ccc(Cl)cc32)CC1`, the Ki (in general, the equilibrium dissociation constant of an inhibitor or competing ligand from its target) in data set [1] turned out to be 0.82 nM; in data set [2] it was 110 nM. Further, in data set [3], the 50% effect level (ED50) was put at a dose of 0.24 µmol/kg. In data set [4], the ED50 (commonly the midpoint of the dose-response relation) at […] came to 19.5 µmol/kg. Further, the AUC in data set [5] amounted to 163.4.

For the origin of these results see ChEMBL document CHEMBL1135802, “Pyrrolo[1,3]benzothiazepine-based atypical antipsychotic agents. Synthesis, structure-activity relationship, molecular modeling, and biological studies” (J Med Chem, 2002).
